Assay results: patent publication US12091425B2 (AMGEN INC., priority 2016, dated 2024)

Experiments:
[1] = biological target: T1, Mcl-1/Bim interaction, recombinant human Mcl-1 (171-327) (Homo sapiens, UniProt Q07820); assay: Cell free Mcl-1: Bim Affinity Assay (Mcl-1 HTRF); format: binding
T1 construct: made in house
Method in brief: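 Biotin-Bim(51-76) peptide, TR-FRET readout, overnight incubation; IC50 from duplicate competition curves, 4-parameter fit.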

[2] = system: OPM-2 human multiple myeloma cell line; assay: Cell Viability Assay (OPM-2 10 FBS); format: cell-based; conditions: OPM-2 cells, CellTiter-Glo
Method in brief: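 ATP-based luminescence (CellTiter-Glo) measured after a 16 h compound treatment of OPM-2 cells seeded at 3000 cells/well in 10% FBS medium. IC50 values derived by 4-parameter logistic fitting of serial dilutions.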

[3] = TR-FRET, 0.1 nM Mcl-1 (171-327), 0.05 nM biotin-Bim (51-76)
[4] = Homo sapiens, OPM-2, 16 h, 16 h
[5] = cell free Mcl-1:Bim TR-FRET, recombinant human Mcl-1 (171-327)

T1 sequence (Q07820 171-327): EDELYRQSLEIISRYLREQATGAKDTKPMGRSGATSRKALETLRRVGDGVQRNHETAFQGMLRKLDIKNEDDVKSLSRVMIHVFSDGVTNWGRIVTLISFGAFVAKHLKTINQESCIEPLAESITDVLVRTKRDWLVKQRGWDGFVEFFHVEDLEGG

| SMILES | IC50 [1, 3] [nM] | IC50 [2, 4] [nM] | IC50 ([2]; Homo sapiens, OPM-2, 16 h, 16 h incubation) [nM] | IC50 ([2]; 16 h) [nM] | IC50 [1, 5] [nM] |
| --- | --- | --- | --- | --- | --- |
| COCCO[C@H]1/C=C/[C@@H](C)C[C@@H](C)S(=O)(=O)NC(=O)c2ccc3c(c2)N(C[C@@H]2CC[C@H]21)C[C@@]1(CCCc2cc(Cl)ccc21)CO3 [Example 1020, (1S,3′R,6′R,7′S,8′E,10′S,12′R)-6-chloro-7′-(2-methoxyethoxy)-10′,12′-dimethyl-3,4-dihydro-2H,15′H-spiro[naphthalene-1,22′-[20]oxa[13]thia[1,14]diazatetracyclo[14.7.2.0^3,6.0^19,24]pentacosa [8,16,18,24]tetraen]-15′-one 13′,13′-dioxide] | 1.05 |  | 759 |  |  |
| CCN(CC)S(=O)(=O)CCN1CC/C=C/[C@H](O)[C@@H]2CC[C@H]2CN2C[C@@]3(CCCc4cc(Cl)ccc43)COc3ccc(cc32)C(=O)NS1(=O)=O [Example 35, 2-((1S,3′R,6′R,7′S,8′E)-6-chloro-7′-hydroxy-13′,13′-dioxido-15′-oxo-3,4-dihydro-2H,12′H-spiro[naphthalene-1,22′-[20]oxa[13]thia[1,12,14]triazatetracyclo[14.7.2.0^3,6.0^19,24]pentacosa[8,16,18,24]tetraen]-12′-yl)-N,N-diethylethanesulfonamide] | 1.55 | 1280 |  |  |  |
| CC(C)C[C@H](O[C@H]1/C=C/C[C@H](C)[C@@H](C)S(=O)(=O)NC(=O)c2ccc3c(c2)N(C[C@@H]2CC[C@H]21)C[C@@]1(CCCc2cc(Cl)ccc21)CO3)C(=O)N(C)C (single isomer, unassigned) [Example 429] | 4.15 |  |  | 1320 |  |
| CCOC(=O)CO[C@H]1/C=C/CC[C@@H](CC(=O)OC)S(=O)(=O)NC(=O)c2ccc3c(c2)N(C[C@@H]2CC[C@H]21)C[C@@]1(CCCc2cc(Cl)ccc21)CO3 [Example 623] |  |  |  | 483 | 0.642 |
| COCC[C@@H]1[C@@H](C)C/C=C/[C@H](OCCN2CCOCC2)[C@@H]2CC[C@H]2CN2C[C@@]3(CCCc4cc(Cl)ccc43)COc3ccc(cc32)C(=O)NS1(=O)=O (single isomer, unassigned) [Example 398] | 0.233 |  |  | 88.3 |  |
| COCCCO[C@H]1/C=C/C[C@H](C)N(CCCOC)S(=O)(=O)NC(=O)c2ccc3c(c2)N(C[C@@H]2CC[C@H]21)C[C@@]1(CCCc2cc(Cl)ccc21)CO3 (single isomer, unassigned) [Example 75] | 1.66 | 875 |  |  |  |

Second part, led by results:

| IC50 [1, 3] [nM] | IC50 [2, 4] [nM] | IC50 ([2]; Homo sapiens, OPM-2, 16 h, 16 h incubation) [nM] | SMILES | IC50 ([2]; 16 h) [nM] | IC50 [1, 5] [nM] |
| --- | --- | --- | --- | --- | --- |
| 0.267 | 325 |  | Cc1nnc(CO[C@H]2/C=C/CC[C@@H](C)S(=O)(=O)NC(=O)c3ccc4c(c3)N(C[C@@H]3CC[C@H]32)C[C@@]2(CCCc3cc(Cl)ccc32)CO4)o1 [Example 412, (1S,3′R,6′R,7′S,8′E,12′R)-6-chloro-12′-methyl-7′-((5-methyl-1,3,4-oxadiazol-2-yl)methoxy)-3,4-dihydro-2H,15′H-spiro[naphthalene-1,22′-[20]oxa[13]thia[1,14]diazatetracyclo[14.7.2.0^3,6.0^19,24]pentacosa [8,16,18,24]tetraen]-15′-one 13′,13′-dioxide] |  |  |
| 0.414 |  |  | C[C@@H]1[C@@H](C)C/C=C/[C@H](O[C@H]2CCOC2=O)[C@@H]2CC[C@H]2CN2C[C@@]3(CCCc4cc(Cl)ccc43)COc3ccc(cc32)C(=O)NS1(=O)=O (single isomer, unassigned) [Example 427] | 204 |  |
|  | 157 |  | C[C@@H]1[C@@H](C)C/C=C/[C@H](OCCN2CCCC2=O)[C@@H]2CC[C@H]2CN2C[C@@]3(CCCc4cc(Cl)ccc43)COc3ccc(cc32)C(=O)NS1(=O)=O [Example 730, (1S,3′R,6′R,7′S,8′E,11′5,12′R)-6-chloro-11′,12′-dimethyl-7′-(2-(2-oxo-1-pyrrolidinyl)ethoxy)-3,4-dihydro-2H,15′H-spiro[naphthalene-1,22′-[20]oxa[13]thia[1,14]diazatetracyclo[14.7.2.0^3,6.0^19,24]pentacosa [8,16,18,24]tetraen]-15′-one-13′, 13′-dioxide] |  | 0.307 |
